What all share (format): functional
Test [1] relates to Brachyspira hyodysenteriae. Description: In vitro antibacterial activity against Serpulina (Treponema) hyodysenteriae.
For test [2], the system named is Brachyspira hyodysenteriae. In words: In vitro antibacterial activity against Serpulina (Treponema) hyodysenteriae was tested and is expressed as minimum inhibitory concentration: Value ranges from (12.5-25 ug/mL).
Test [3] deals with Brachyspira hyodysenteriae. Description: In vitro antibacterial activity against Serpulina (Treponema) hyodysenteriae was tested and is expressed as minimum inhibitory concentration: Value ranges from (6.25-12.5 ug/mL).
The test system of test [4] is Brachyspira hyodysenteriae. In words: In vitro antibacterial activity against Serpulina (Treponema) hyodysenteriae was tested and is expressed as minimum inhibitory concentration: Value ranges from (0.78-1.56 ug/mL).
Test [5] relates to Brachyspira hyodysenteriae. Description: In vitro antibacterial activity against Serpulina (Treponema) hyodysenteriae was tested and is expressed as minimum inhibitory concentration: Value ranges from ([…] ug/mL).
The test system of test [6] is Brachyspira hyodysenteriae. In words: In vitro antibacterial activity against Serpulina (Treponema) hyodysenteriae was tested and is expressed as minimum inhibitory concentration: Value ranges from (50-100 ug/mL).
In test [7] the test system is Brachyspira hyodysenteriae. Description: In vitro antibacterial activity against Serpulina (Treponema) hyodysenteriae was tested and is expressed as minimum inhibitory concentration: Value ranges from (0.39-0.78 ug/mL).
In test [8] the test system is Brachyspira hyodysenteriae. In words: In vitro antibacterial activity against Serpulina (Treponema) hyodysenteriae was tested and is expressed as minimum inhibitory concentration: Value ranges from (3.13-6.25 ug/mL).

≈ marks a conversion by molar mass, not a printed value.

The MIC is the least concentration at which growth counts as inhibited. Low readings indicate inhibition by little substance, high ones a need for much substance. `CC(=O)[C@@H]1C[C@H](O)[C@H](Oc2ccc(/C=C(\C)C(=O)N[C@@H]3[C@H](O)[C@@H](O)[C@H]4OCO[C@H]4[C@@H]3O)cc2O)O1` came in with an MIC in test [1] above 100 µg/mL.

Take `C=CCOc1ccc(/C=C(\C)C(=O)N[C@@H]2[C@H](O)[C@@H](O)[C@H]3OCO[C@H]3[C@@H]2O)cc1F`: the MIC in test [1] was determined as 1.56 µg/mL (≈ 3.81 µM).

As for `CC(=O)C1O[C@@H](Oc2ccc(/C=C(\C)C(=O)N[C@@H]3[C@H](O)[C@@H](O)[C@H]4OCO[C@H]4[C@@H]3O)cc2O)[C@@H](O)C1Sc1ccccc1` (some centres undefined), the minimum inhibitory concentration (MIC) in test [1] is above 100 µg/mL.

Turning to `C/C(=C\c1ccc(Cc2ccccc2)c(O)c1)C(=O)N[C@@H]1[C@H](O)[C@@H](O)[C@H]2OCO[C@H]2[C@@H]1O`, the minimum inhibitory concentration (MIC) in test [1] was above 200 µg/mL.

`C/C(=C\c1ccc(OCc2ccccc2)c(O)c1)C(=O)N[C@@H]1[C@H](O)[C@@H](O)[C@H]2OCO[C@H]2[C@@H]1O` gave an MIC in test [1] of 25 µg/mL (≈ 54.6 µM).

`CCCNc1ccc(/C=C(\C)C(=O)N[C@@H]2[C@H](O)[C@@H](O)[C@H]3OCO[C@H]3[C@@H]2O)cc1O` displayed a minimal inhibitory concentration (MIC) in test [2] of 12.5 µg/mL (≈ 30.6 µM).

As to `COc1ccc(/C=C(\C)C(=O)N[C@@H]2[C@H](O)[C@@H](O)[C@H]3OCO[C@H]3[C@@H]2O)cc1F`, the MIC in test [3] came out at 6.25 µg/mL (≈ 16.3 µM).

`CCCOc1ccc(/C=C(\C)C(=O)N[C@@H]2[C@H](O)[C@@H](O)[C@H]3OCO[C@H]3[C@@H]2O)cc1O` showed an MIC in test [4] of 0.78 µg/mL (≈ 1.91 µM).

`C=CCNc1ccc(/C=C(\C)C(=O)N[C@@H]2[C@H](O)[C@@H](O)[C@H]3OCO[C@H]3[C@@H]2O)cc1O` registered an MIC in test [2] of 12.5 µg/mL (≈ 30.8 µM).

`C/C(=C\c1ccc(N2CCCC2)cc1)C(=O)N[C@@H]1[C@H](O)[C@@H](O)[C@H]2OCO[C@H]2[C@@H]1O` yielded an MIC in test [1] of 6.25 µg/mL (≈ 15.5 µM).

`CCOc1ccc(/C=C(\C)C(=O)N[C@@H]2[C@H](O)[C@@H](O)[C@H]3OCO[C@H]3[C@@H]2O)cc1O` gave an MIC in test [1] of 1.56 µg/mL (≈ 3.95 µM).

Consider `C/C(=C\c1ccc(OCC(O)CO)c(O)c1)C(=O)N[C@@H]1[C@H](O)[C@@H](O)[C@H]2OCO[C@H]2[C@@H]1O` (some centres undefined), for which 25 µg/mL (≈ 56.6 µM) was the least that counted as inhibitory in test [1] (MIC).

In turn, `C/C(=C\c1ccc(F)c(F)c1)C(=O)N[C@@H]1[C@H](O)[C@@H](O)[C@H]2OCO[C@H]2[C@@H]1O` displayed an MIC in test [1] above 200 µg/mL.

In turn, `C#CCOc1ccc(/C=C(\C)C(=O)N[C@@H]2[C@H](O)[C@@H](O)[C@H]3OCO[C@H]3[C@@H]2O)cc1O` had an MIC in test [1] of 6.25 µg/mL (≈ 15.4 µM).

`C/C(=C\c1ccc(OCOCCO)c(O)c1)C(=O)N[C@@H]1[C@H](O)[C@@H](O)[C@H]2OCO[C@H]2[C@@H]1O` returned an MIC in test [1] of 25 µg/mL (≈ 56.6 µM).

In test [1], `C/C(=C\c1cccc(O)c1)C(=O)N[C@@H]1[C@H](O)[C@@H](O)[C@H]2OCO[C@H]2[C@@H]1O` gave an MIC above 200 µg/mL.

`C/C(=C\c1ccc(OCC(N)=O)c(O)c1)C(=O)N[C@@H]1[C@H](O)[C@@H](O)[C@H]2OCO[C@H]2[C@@H]1O` showed an MIC in test [1] above 200 µg/mL.

In the case of `C/C(=C\c1ccc(OC2CCCC2)c(O)c1)C(=O)N[C@@H]1[C@H](O)[C@@H](O)[C@H]2OCO[C@H]2[C@@H]1O`, the minimal inhibitory concentration (MIC) in test [1] was 6.25 µg/mL (≈ 14.4 µM).

Turning to `CC(=O)C1=C[C@H](O)[C@H](Oc2ccc(/C=C(\C)C(=O)N[C@@H]3[C@H](O)[C@@H](O)[C@H]4OCO[C@H]4[C@@H]3O)cc2O)O1`, the MIC in test [1] was 25 µg/mL (≈ 50.7 µM).

`C=C(C)COc1ccc(/C=C(\C)C(=O)N[C@@H]2[C@H](O)[C@@H](O)[C@H]3OCO[C@H]3[C@@H]2O)cc1O` returned a minimal inhibitory concentration (MIC) in test [1] of 3.13 µg/mL (≈ 7.43 µM).

Molecule `CC(=O)CCCOc1ccc(/C=C(\C)C(=O)N[C@@H]2[C@H](O)[C@@H](O)[C@H]3OCO[C@H]3[C@@H]2O)cc1O` came in with an MIC in test [5] of 12.5 µg/mL (≈ 27.7 µM).

As to `C/C(=C\c1ccc(N)c(O)c1)C(=O)N[C@@H]1[C@H](O)[C@@H](O)[C@H]2OCO[C@H]2[C@@H]1O`, the MIC in test [1] is above 200 µg/mL.

`CCCCCOc1ccc(/C=C(\C)C(=O)N[C@@H]2[C@H](O)[C@@H](O)[C@H]3OCO[C@H]3[C@@H]2O)cc1O` gave an MIC in test [1] above 200 µg/mL.

On to `CCCCc1ccc(/C=C(\C)C(=O)N[C@@H]2[C@H](O)[C@@H](O)[C@H]3OCO[C@H]3[C@@H]2O)cc1`, for which the minimal inhibitory concentration (MIC) in test [2] is 12.5 µg/mL (≈ 31.9 µM).

Molecule `C/C(=C\c1ccc(-c2ccccc2)cc1)C(=O)N[C@@H]1[C@H](O)[C@@H](O)[C@H]2OCO[C@H]2[C@@H]1O` had an MIC in test [1] of 12.5 µg/mL (≈ 30.4 µM).

In the case of `C/C(=C\c1ccc(OCCF)c(O)c1)C(=O)N[C@@H]1[C@H](O)[C@@H](O)[C@H]2OCO[C@H]2[C@@H]1O`, the MIC in test [1] is 6.25 µg/mL (≈ 15.1 µM).

Turning to `CSC1C(C(C)=O)O[C@@H](Oc2ccc(/C=C(\C)C(=O)N[C@@H]3[C@H](O)[C@@H](O)[C@H]4OCO[C@H]4[C@@H]3O)cc2O)[C@H]1O` (some centres undefined), the minimum inhibitory concentration (MIC) in test [1] was above 100 µg/mL.

In test [1], `C/C(=C\c1ccc(N2CCCC2)c(F)c1)C(=O)N[C@@H]1[C@H](O)[C@@H](O)[C@H]2OCO[C@H]2[C@@H]1O` gave a minimal inhibitory concentration (MIC) of 6.25 µg/mL (≈ 14.8 µM).

As for `CCNc1ccc(/C=C(\C)C(=O)N[C@@H]2[C@H](O)[C@@H](O)[C@H]3OCO[C@H]3[C@@H]2O)cc1O`, the MIC in test [1] is 100 µg/mL (≈ 254 µM).

In the case of `COc1ccc(/C=C(\C)C(=O)N[C@@H]2[C@H](O)[C@@H](O)[C@H]3OCO[C@H]3[C@@H]2O)cc1O`, the minimal inhibitory concentration (MIC) in test [1] stood at 12.5 µg/mL (≈ 32.8 µM). This MIC lies about 8-fold lower than the previous one.

With `CCOCOc1ccc(/C=C(\C)C(=O)N[C@@H]2[C@H](O)[C@@H](O)[C@H]3OCO[C@H]3[C@@H]2O)cc1O`, it took 25 µg/mL (≈ 58.8 µM) to inhibit growth in test [1] (MIC). This MIC is about 2-fold higher than that of the molecule before.

On to `C/C(=C\c1ccc(OCCO)c(O)c1)C(=O)N[C@@H]1[C@H](O)[C@@H](O)[C@H]2OCO[C@H]2[C@@H]1O`, for which the minimum inhibitory concentration (MIC) in test [6] was 50 µg/mL (≈ 122 µM).

In test [7], `C/C(=C\c1ccc(OCC2CC2)c(O)c1)C(=O)N[C@@H]1[C@H](O)[C@@H](O)[C@H]2OCO[C@H]2[C@@H]1O` had an MIC of 0.39 µg/mL (≈ 0.925 µM).

With `CCCN(CC)c1ccc(/C=C(\C)C(=O)N[C@@H]2[C@H](O)[C@@H](O)[C@H]3OCO[C@H]3[C@@H]2O)cc1O`, the MIC in test [1] was above 200 µg/mL.

Molecule `CSCCCOc1ccc(/C=C(\C)C(=O)N[C@@H]2[C@H](O)[C@@H](O)[C@H]3OCO[C@H]3[C@@H]2O)cc1O` showed a minimum inhibitory concentration (MIC) in test [4] of 0.78 µg/mL (≈ 1.71 µM).

In test [1], `C#CCOc1ccc(/C=C(\C)C(=O)N[C@@H]2[C@H](O)[C@@H](O)[C@H]3OCO[C@H]3[C@@H]2O)cc1F` had a minimal inhibitory concentration (MIC) of 6.25 µg/mL (≈ 15.3 µM).

With `C=CC(C)Oc1ccc(/C=C(\C)C(=O)N[C@@H]2[C@H](O)[C@@H](O)[C@H]3OCO[C@H]3[C@@H]2O)cc1O` (some centres undefined), inhibition of growth in test [1] (MIC) required 25 µg/mL (≈ 59.3 µM).

In test [1], `CCCCOc1ccc(/C=C(\C)C(=O)N[C@@H]2[C@H](O)[C@@H](O)[C@H]3OCO[C@H]3[C@@H]2O)cc1O` came in with an MIC of 1.56 µg/mL (≈ 3.68 µM).

In turn, `CCCCc1ccc(/C=C(\C)C(=O)N[C@@H]2[C@H](O)[C@@H](O)[C@H]3OCO[C@H]3[C@@H]2O)cc1O` displayed a minimal inhibitory concentration (MIC) in test [8] of 3.13 µg/mL (≈ 7.68 µM).

In test [1], `C=CCN(C(C)=O)c1ccc(/C=C(\C)C(=O)N[C@@H]2[C@H](O)[C@@H](O)[C@H]3OCO[C@H]3[C@@H]2O)cc1O` had an MIC above 200 µg/mL.

In the case of `C/C(=C\c1ccc(O)c(O)c1)C(=O)NC1[C@@H](O)[C@@H]2OCO[C@@H]2[C@H](O)[C@H]1O` (some centres undefined), in test [1], the minimum inhibitory concentration (MIC) turned out to be 200 µg/mL (≈ 544 µM).

Molecule `C/C(=C\c1ccc(OCc2cccs2)c(O)c1)C(=O)N[C@@H]1[C@H](O)[C@@H](O)[C@H]2OCO[C@H]2[C@@H]1O` gave a minimal inhibitory concentration (MIC) in test [8] of 3.13 µg/mL (≈ 6.75 µM).

In the case of `C=CCOc1ccc(/C=C(\C)C(=O)N[C@@H]2[C@H](O)[C@@H](O)[C@H]3OCO[C@H]3[C@@H]2O)cc1O`, it took 0.78 µg/mL (≈ 1.91 µM) to inhibit growth in test [1] (MIC).

Regarding `CC(=O)[C@H]1O[C@@H](Oc2ccc(/C=C(\C)C(=O)N[C@@H]3[C@H](O)[C@@H](O)[C@H]4OCO[C@H]4[C@@H]3O)cc2O)[C@@H](O)[C@@H]1O` [HYGROMYCIN A], the minimum inhibitory concentration (MIC) in test [4] was found to be 0.78 µg/mL (≈ 1.52 µM).

Source of the values: ChEMBL document CHEMBL1126965, “Synthesis and vitro antibacterial activity of hygromycin a analogs modified at the C4 aryl position” (1993).
